In patent publication US9149038B2, “4-amino-6-(heterocyclic)picolinates and 6-amino-2-(heterocyclic)pyrimidine-4-carboxylates and their use as herbicides” (Dow AgroSciences LLC, priority 2013, dated 2015):
Read-outs that look alike come from different tables or passages of the source.

Experiments:
[1] = test system: Key Broadleaf Weed and Crop Species; experiment: Post-Emergent Test II: postemergent herbicidal activity, visual rating after 14 d (Table 7); type: in vivo; settings: post-emergence, 336 h; for pest or weed control at 35 g/ha: 35 g ai/ha; for pest or weed control at 70 g/ha: 70 g ai/ha; for pest or weed control at 140 g/ha: 140 g ai/ha
How it was run: (§1)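 Plants were raised in a greenhouse for 7-21 d and treated once at the first or second true leaf stage. Compounds, dissolved in 97:3 acetone:DMSO then diluted into an aqueous acetone/isopropanol/crop oil/Triton X-155 carrier, were applied by overhead track sprayer at 187 L/ha. After 14 d with subirrigation, injury was scored visually from 0 (none) to 100 (complete kill).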

[2] = test system: Key Grass and Sedge Weeds as well as Grass Crops; experiment: Post-Emergent Test II: postemergent herbicidal activity, visual rating after 14 d (Table 8); type: in vivo; settings: post-emergence, 336 h; for pest or weed control at 35 g/ha: 35 g ai/ha; for pest or weed control at 70 g/ha: 70 g ai/ha; for pest or weed control at 140 g/ha: 140 g ai/ha
How it was run: as §1

[3] = ABUTH: velvetleaf (Abutilon theophrasti), read-out: Visual Growth Reduction (%) 14 Days After Application ABUTH
[4] = AMARE: redroot pigweed (Amaranthus retroflexus), read-out: Visual Growth Reduction (%) 14 Days After Application AMARE
[5] = BRSNN: oilseed rape, canola (Brassica napus), read-out: Visual Growth Reduction (%) 14 Days After Application BRSNN
[6] = CHEAL: lambsquarters (Chenopodium album), read-out: Visual Growth Reduction (%) 14 Days After Application CHEAL
[7] = EPHHL: wild poinsettia (Euphorbia heterophylla), read-out: Visual Growth Reduction (%) 14 Days After Application EPHHL
[8] = HELAN: sunflower (Helianthus annuus), read-out: Visual Growth Reduction (%) 14 Days After Application HELAN
[9] = barnyardgrass (Echinochloa crus-galli), read-out: Visual Growth Reduction (%) 14 Days After Application, ECHCG
[10] = giant foxtail (Setaria faberi), read-out: Visual Growth Reduction (%) 14 Days After Application, SETFA
[11] = maize, corn (Zea mays), read-out: Visual Growth Reduction (%) 14 Days After Application, ZEAMX
[12] = rice (Oryza sativa), read-out: Visual Growth Reduction (%) 14 Days After Application, ORYSA
[13] = wheat, spring (Triticum aestivum), read-out: Visual Growth Reduction (%) 14 Days After Application, TRZAS
[14] = yellow nutsedge (Cyperus esculentus), read-out: Visual Growth Reduction (%) 14 Days After Application, CYPES

Nc1cc(-c2ccc(F)c3c2OC(F)(F)O3)nc(C(=O)O)c1Cl [Compound 89]
pest or weed control at 35 g/ha [1, 3]: 0 to 29%
pest or weed control at 70 g/ha [1, 3]: 75 to 84%
pest or weed control at 140 g/ha [1, 3]: 75 to 84%
pest or weed control at 35 g/ha [1, 4]: 95 to 100%
pest or weed control at 70 g/ha [1, 4]: 95 to 100%
pest or weed control at 140 g/ha [1, 4]: 95 to 100%
pest or weed control at 35 g/ha [1, 5]: 85 to 94%
pest or weed control at 70 g/ha [1, 5]: 85 to 94%
pest or weed control at 140 g/ha [1, 5]: 95 to 100%
pest or weed control at 35 g/ha [1, 6]: 95 to 100%
pest or weed control at 70 g/ha [1, 6]: 95 to 100%
pest or weed control at 140 g/ha [1, 6]: 95 to 100%
pest or weed control at 35 g/ha [1, 7]: 0 to 29%
pest or weed control at 70 g/ha [1, 7]: 0 to 29%
pest or weed control at 140 g/ha [1, 7]: 0 to 29%
pest or weed control at 35 g/ha [1, 8]: 60 to 74%
pest or weed control at 70 g/ha [1, 8]: 60 to 74%
pest or weed control at 140 g/ha [1, 8]: 75 to 84%
pest or weed control at 35 g/ha [2, 9]: 0 to 29%
pest or weed control at 70 g/ha [2, 9]: 0 to 29%
pest or weed control at 140 g/ha [2, 9]: 0 to 29%
pest or weed control at 35 g/ha [2, 10]: 0 to 29%
pest or weed control at 70 g/ha [2, 10]: 0 to 29%
pest or weed control at 140 g/ha [2, 10]: 0 to 29%
pest or weed control at 35 g/ha [2, 11]: 0 to 29%
pest or weed control at 70 g/ha [2, 11]: 0 to 29%
pest or weed control at 140 g/ha [2, 11]: 0 to 29%
pest or weed control at 35 g/ha [2, 12]: 0 to 29%
pest or weed control at 70 g/ha [2, 12]: 0 to 29%
pest or weed control at 140 g/ha [2, 12]: 0 to 29%
pest or weed control at 35 g/ha [2, 13]: 0 to 29%
pest or weed control at 70 g/ha [2, 13]: 0 to 29%
pest or weed control at 140 g/ha [2, 13]: 0 to 29%
pest or weed control at 35 g/ha [2, 14]: 0 to 29%
pest or weed control at 70 g/ha [2, 14]: 0 to 29%
pest or weed control at 140 g/ha [2, 14]: 0 to 29%
